Patent publication US20050159427A1, “N-acylsulfonamide apoptosis promoters” (priority 2003, published 2005)

System: A549 human non-small cell lung carcinoma cells
Experiment: Paclitaxel combination on A549 cells
Type: cell-based
Conditions: stated after the paclitaxel combination results on A549 and PC-3 cells

For `CN(C)CC[C@@H](CSc1ccccc1)Nc1ccc(S(=O)(=O)NC(=O)c2ccc(N3CCN(Cc4ccccc4-c4ccc(Cl)cc4)CC3)cc2)cc1[N+](=O)[O-]` [enantiomer of EXAMPLE 2, N-(4-(4-((4′-chloro(1,1′-biphenyl)-2-yl)methyl)piperazin-1-yl)benzoyl)-4-(((1S)-3-(dimethylamino)-1-((phenylsulfanyl)methyl)propyl)amino)-3-nitrobenzenesulfonamide], which “efficacy relative to EXAMPLE 2” value is on record?
Its value is “less efficacious”.
